Source: patent US7265152B2 (ViroPharma Incorporated, priority 2002, dated 2007)
Read-outs that look alike come from different tables or passages of the source.

Legend:
[1] = molecular target: T1, HCV NS5B (Hepatitis C virus genotype 1b, UniProt Q9WMX2); assay: Inhibition of viral RNA-dependent RNA polymerase (RdRp), in vitro biochemical assay; set-up: species or system HCV genotype 1b virus (BB7); settings: read-out: HCV pol-BB7 IC50
T1 construct: fusion protein, of which the carboxyl terminal 21 amino acids were removed to enhance its solubility; His tag (GSHHHHHH); made in house; host or cells: E. coli
From the text: The HCV NS5B-directed RdRp activity was established and characterized in a standard in vitro biochemical assay using a purified HCV NS5B protein derived from the consensus sequence of a patient infected with HCV genotype 1b virus (BB7). (See Blight K J et al., Science. 2000, 290:1972-4). The NS5B consensus sequence was cloned and expressed in E. coli as a histidine tagged (GSHHHHHH) fusion protein, of which the carboxyl terminal 21 amino acids were removed to enhance its solubility.
In addition to evaluating their activity in the replicon assay, representative compounds within the scope of the present invention, as shown in examples 1-453 of Table 1, were also evaluated for antiviral activity using this assay. A measure of the inhibitory activity of compounds of the invention may be expressed as IC50 values. IC50 values represent the concentration of the compound at which 50% of the RdRp activity is inhibited. […] These low concentrations of test compounds required to achieve 50% inhibition of the RdRp activity indicate that the compounds of the invention are effective at inhibiting RNA synthesis by viral RdRp enzymes.

[2] = test system: HCV replicon (BB7 sequence) in Huh-7-Clone A cells; assay: HCV replicon assay: ELISA of NS5A protein in replicon-containing cells (Inhibition of Viral RNA Replication); type: cell-based; settings: Hepatitis C virus; HCV replicon assay; ranges of 50% effective concentration (EC50); read-out: Replicon
From the text: Antiviral activity of representative compounds of the invention was first evaluated in a human liver-derived cell line (Huh-7-Clone A) containing the HCV replicon (BB7 sequence) (See Lohmann et al. Science. 1999, 285:110-3; Blight K J et al., Science. 2000, 290:1972-4; Pietschmann, T. et al., J. Virol. 2001, 73:1252-1264; and Lohmann, V. et al., J. Virol. 2001, 75:1437-1449). The HCV replicon is a subgenomic viral RNA that expresses the HCV proteins required for its own replication. These proteins include non-structural proteins NS3, NS4A, NS4B, NS5A and NS5B. The replicon also contains a foreign gene encoding a drug-selectable marker (neomycin phosphotransferase) to allow for G418 (neomycin) selection of cells that contain the replicon.
An ELISA (enzyme-linked immunosorbant assay) was used to determine the effect of compounds within the scope of the invention on the amount of HCV NS5A protein produced after a 72-hour incubation of the replicon-containing cells in the presence of varying concentrations of compound. COSTAR® 96-well cell culture plates were used but other known cell culture plates may be used. After incubation, media is removed from wells and the cells are fixed to the assay plate using 0.05% glutaraldehyde. The glutaraldehyde is then washed off using phosphate-buffered saline (PBS) following a 1 hour incubation and cells are blocked for non-specific antibody binding using for example SUPERBLOCK® reagent (blocking buffer) in PBS. The blocking agent is rinsed from the cells with PBS after 1 hour at 37° C. and primary monoclonal antibody is added to each well containing compound. Primary antibody is incubated for 1 hour at 37° C. and rinsed 3 times with PBS containing 0.02% TWEEN-20™ before addition of Horseradish Peroxidase (HRP) conjugated secondary antibody. HRP is incubated for 1 hour at 37° C. and rinsed several times, first with PBS/TWEEN-20™ followed by PBS alone. To quantify peroxidase activity, 3,3′,5, 5′-tetramethylbenzidine (TMB) substrate is added to the plate and after 30 minutes, the plates are read in an ELISA plate reader at an OD of 650 nm. Compound dose response was measured in an 8-point dose curve diluted serially to determine the inhibitory concentration at 50% (EC50 value). […] Ranges of 50% effective concentrations (EC50s) for representative compounds within the scope of this invention are listed in Table 1. Preferred compounds have 50% effective concentrations at about 30 μM or less, more preferred compounds have 50% effective concentrations at about 5 μM or less, and most preferred compounds have 50% effective concentrations at about 0.5 μM or less.

[3] = HCV NS5B RdRp, BB7 (genotype 1b), reported as class symbols
[4] = HCV NS5B polymerase, BB7 (genotype 1b), values given as range classes A-D
[5] = purified His-tagged NS5B (BB7), carboxyl terminal 21 amino acids removed

| SMILES | IC50 [1, 3] | IC50 [1, 4] | also measured |
| --- | --- | --- | --- |
| CNC(=O)c1c(-c2ccc(F)cc2)oc2cc(N(CC(C)O)S(C)(=O)=O)c(OC)cc12 (stereo not drawn) [Example 439, 2-(4-Fluoro-phenyl)-6-[(2-hydroxy-propyl)-methanesulfonyl-amino]-5-methoxy-benzofuran-3-carboxylic acid methylamide] | ≤ 500 nM | – | – |
| CCOc1cc2c(C(=O)NC)c(-c3ccc(F)cc3)oc2cc1-c1c(C)noc1C [Example 414, 6-(3,5-Dimethyl-isoxazol-4-yl)-5-ethoxy-2-(4-fluoro-phenyl)-benzofuran-3-carboxylic acid methylamide] | – | ≤ 500 nM | – |
| CNC(=O)c1c(-c2ccc(F)cc2)oc2cc(N(C)S(C)(=O)=O)c(OC(C)c3nccs3)cc12 (stereo not drawn) [Example 408, 2-(4-Fluoro-phenyl)-6-(methanesulfonyl-methyl-amino)-5-(1-thiazol-2-yl-ethoxy)-benzofuran-3-carboxylic acid methylamide] | – | – | EC50 [2]: < 1000 nM |
| CNC(=O)c1c(-c2ccc(F)cc2)oc2cc(C(C)=O)ccc12 [Example 411, 6-Acetyl-2-(4-fluoro-phenyl)-benzofuran-3-carboxylic acid methylamide] | – | 500 to 5000 nM | – |
| CNC(=O)c1c(-c2ccc(F)cc2)oc2cc(C#N)c(OC(C)C)cc12 [Example 129, 6-Cyano-2-(4-fluoro-phenyl)-5-isopropoxy-benzofuran-3-carboxylic acid methylamide] | – | – | IC50 ([1]; HCV NS5B RdRp, BB7 genotype 1b): ≤ 500 nM |
| CNC(=O)c1c(-c2ccc(F)cc2)oc2ccc(OCC(F)(F)F)cc12 [Example 64, 2-(4-Fluoro-phenyl)-5-(2,2,2-trifluoro-ethoxy)-benzofuran-3-carboxylic acid methylamide] | – | – | IC50 [1, 5]: 500 to 5000 nM |
| CNC(=O)c1c(-c2ccc(F)cc2)oc2cc(-c3c(C)noc3C)c(OCCCN3CCCCC3)cc12 [Example 434, 6-(3,5-Dimethyl-isoxazol-4-yl)-2-(4-fluoro-phenyl)-5-(3-piperidin-1-yl-propoxy)-benzofuran-3-carboxylic acid methylamide] | – | 500 to 5000 nM | – |
| CNC(=O)c1c(-c2ccc(F)cc2)oc2cc(-c3c(C)noc3C)c(OCCN3CCOCC3)cc12 [Example 433, 6-(3,5-Dimethyl-isoxazol-4-yl)-2-(4-fluoro-phenyl)-5-(2-morpholin-4-yl-ethoxy)-benzofuran-3-carboxylic acid methylamide] | – | ≤ 500 nM | – |
| CNC(=O)c1c(-c2ccc(F)cc2)oc2cc(N(C)S(C)(=O)=O)c(OCC(C)(C)O)cc12 [Example 412, 2-(4-Fluoro-phenyl)-5-(2-hydroxy-2-methyl-propoxy)-6-(methanesulfonyl-methyl-amino)-benzofuran-3-carboxylic acid methylamide] | – | ≤ 500 nM | – |
| CNC(=O)c1c(-c2ccc(F)cc2)oc2cc(C3CCCN3C(=O)C3CC3)c(OC(C)C)cc12 (stereo not drawn) [Example 448, 6-(1-Cyclopropanecarbonyl-pyrrolidin-2-yl)-2-(4-fluoro-phenyl)-5-isopropoxy-benzofuran-3-carboxylic acid methylamide] | ≤ 500 nM | – | – |
| CCN(CC)C(=O)COc1cc2c(C(=O)NC)c(-c3ccc(F)cc3)oc2cc1N(C)S(C)(=O)=O [Example 413, 5-Diethylcarbamoyl-methoxy-2-(4-fluoro-phenyl)-6-(methanesulfonyl-methyl-amino)-benzofuran-3-carboxylic acid methylamide] | – | ≤ 500 nM | – |
| CNC(=O)c1c(-c2ccc(F)cc2)oc2cc(OCc3ccccc3)c(OC(C)C)cc12 [Example 194, 6-Benzyloxy-2-(4-fluoro-phenyl)-5-isopropoxy-benzofuran-3-carboxylic acid methylamide] | – | – | IC50 ([1]; HCV NS5B RdRp, BB7, reported as range class): 500 to 5000 nM |
| CNC(=O)c1c(-c2ccc(F)cc2)oc2cc(Nc3cc(C)nn3C)c(OC(C)C)cc12 [Example 127, 6-(2,5-Dimethyl-2H-pyrazol-3-ylamino)-2-(4-fluoro-phenyl)-5-isopropoxy-benzofuran-3-carboxylic acid methylamide] | – | – | IC50 ([1]; HCV NS5B RdRp, BB7 genotype 1b): 5000 to 30000 nM |
| CNC(=O)c1c(-c2ccc(F)cc2)oc2cc(N(CC(O)c3ccc(F)cc3)S(C)(=O)=O)c(O)cc12 (stereo not drawn) [Example 451, 2-(4-Fluoro-phenyl)-6-{[2-(4-fluoro-phenyl)-2-hydroxy-ethyl]-methanesulfonyl-amino}-5-hydroxy-benzofuran-3-carboxylic acid methylamide] | ≤ 500 nM | – | – |
| CNC(=O)c1c(-c2ccc(F)cc2)oc2cc(N(C)S(C)(=O)=O)c(OCc3nccn3Cc3ccccc3)cc12 [Example 399, 5-(1-Benzyl-1H-imidazol-2-ylmethoxy)-2-(4-fluoro-phenyl)-6-(methanesulfonyl-methyl-amino)-benzofuran-3-carboxylic acid methylamide] | – | ≤ 500 nM | – |
| CNC(=O)c1c(-c2ccc(F)cc2F)oc2cc(-c3c(C)noc3C)c(OC)cc12 [Example 400, 2-(2,4-Difluoro-phenyl)-6-(3,5-dimethyl-isoxazol-4-yl)-5-methoxy-benzofuran-3-carboxylic acid methylamide] | – | ≤ 500 nM | – |
| CNC(=O)c1c(-c2ccc(F)cc2)oc2cc(CN3CC(O)=C(C#N)C3=O)c(OC)cc12 [Example 431, 6-(3-Cyano-4-hydroxy-2-oxo-2,5-dihydro-pyrrol-1-ylmethyl)-2-(4-fluoro-phenyl)-5-methoxy-benzofuran-3-carboxylic acid methylamide] | – | ≤ 500 nM | – |
| CCc1cc2c(C(=O)NC)c(-c3ccc(F)cc3)oc2cc1C1CCCN1C(C)=O (stereo not drawn) [Example 440, 6-(1-Acetyl-pyrrolidin-2-yl)-5-ethyl-2-(4-fluoro-phenyl)-benzofuran-3-carboxylic acid methylamide] | ≤ 500 nM | – | – |
| CNC(=O)c1c(-c2ccccc2)oc2ccc(OC(F)(F)F)cc12 [Example 2, 2-Phenyl-5-trifluoromethoxy-benzofuran-3-carboxylic acid methylamide] | – | – | IC50 [1, 5]: 500 to 5000 nM |
| CNC(=O)c1c(-c2ccc(F)cc2)oc2cc(N(C)S(C)(=O)=O)c(-c3cccs3)cc12 [Example 450, 2-(4-Fluoro-phenyl)-6-(methanesulfonyl-methyl-amino)-5-thiophen-2-yl-benzofuran-3-carboxylic acid methylamide] | ≤ 500 nM | – | – |
| CNC(=O)c1c(-c2ccc(F)cc2)oc2cc(N3CCOCC3)c(OCc3ccncc3)cc12 [Example 128, 2-(4-Fluoro-phenyl)-6-morpholin-4-yl-5-(pyridin-4-ylmethoxy)-benzofuran-3-carboxylic acid methylamide] | – | – | IC50 ([1]; HCV NS5B RdRp, BB7 genotype 1b): ≤ 500 nM |
| CNC(=O)c1c(-c2ccc(F)cc2)oc2cc(-c3nnco3)c(OC)cc12 [Example 449, 2-(4-Fluoro-phenyl)-5-methoxy-6-[1,3,4]oxadiazol-2-yl-benzofuran-3-carboxylic acid methylamide] | ≤ 500 nM | – | – |
| CNC(=O)c1c(-c2ccc(F)cc2)oc2cc(N(CC(C)O)S(C)(=O)=O)c(O)cc12 (stereo not drawn) [Example 438, 2-(4-Fluoro-phenyl)-5-hydroxy-6-[(2-hydroxy-propyl)-methanesulfonyl-amino]-benzofuran-3-carboxylic acid methylamide] | ≤ 500 nM | – | – |
| CNC(=O)c1c(-c2ccccc2)oc2ccc(O)cc12 [Example 453, 5-Hydroxy-2-phenyl-benzofuran-3-carboxylic acid methylamide] | 5000 to 30000 nM | – | – |
